# Test system: hemoglobin-haptoglobin complex
# Assay: Stability of hemoglobin (as hemoglobin-haptoglobin complex) in samples preserved at 37° C. in preservation solution containing 1 unit/L haptoglobin, Hb measured by latex agglutination method (Examples 1 to 7)
# Set-up: species or system human
# Conditions: for Hb concentration / Recovery ratio with respect to Hb concentration after 0 days: 37° C.
# Experimental: Preservation solutions were prepared with the addition of 40 mmol/L HEPES (pH 6.8), 0.1% BSA, 0.1% NaN3, 1 unit/L haptoglobin, and 0 to 100 mmol/L phenylboronic acid. Samples obtained by adding hemoglobin-added fecal specimens to the preservation solutions so that the fecal concentration would be 0.5% were preserved at 37° C. for 0, 7, 14, and 21 days. The fecal specimens were added with hemoglobin having an amount such that the hemoglobin concentration in the samples would be about 300 μg/L. Instead of the fecal specimens to which hemoglobin was added, samples containing no fecal specimens, in which hemoglobin was added to the preservation solutions so that the hemoglobin concentration in the samples would be 300 μg/L, were similarly preserved. The hemoglobin (Hb) concentrations (μg/L) in the preserved samples were measured by the latex agglutination method.
# The concentrations of hemoglobin were measured using “OC-Hemodia (registered trademark) Auto III ‘EIKEN’” (available from EIKEN CHEMICAL CO., LTD.) as a measurement reagent and “OC-sensor DIANA” (available from EIKEN CHEMICAL CO., LTD.) as a measurement device. The above measurement reagent contains latex particles immobilizing an anti-human hemoglobin rabbit polyclonal antibody.
# From the measured concentrations of hemoglobin, the recovery ratios (%) were calculated with respect to the hemoglobin concentrations immediately after the fecal specimens were added to the preservation solutions (i.e., concentrations 0 days after the fecal specimens were added).
# (§1) For comparative examples, preservation solutions to which no arylboronic acid was added were prepared, and testing was conducted in the same manner.
# The concentration of phenylboronic acid in the preservation solutions of Example 1 was fixed to 15 mmol/L, preservation solutions to which a sugar (sorbitol, sucrose, trehalose, glucose, fructose, or mannitol) was further added at 50 mmol/L or 100 mmol/L or preservation solutions to which no sugar was added were prepared, and testing was conducted in the same manner as in Example 1. For comparative examples, preservation solutions to which the phenylboronic acid and sugar were not added were prepared, and testing was conducted in the same manner.
# Preservation solutions in which sorbitol, sucrose, trehalose, glucose, fructose, or mannitol was added at 100 mmol/L to the preservation solutions of Example 1 containing no phenylboronic acid were prepared, and testing was conducted in the same manner as in Example 1. For comparison, the same testing was conducted without adding these sugars.
# The concentration of phenylboronic acid in the preservation solutions of Example 1 was fixed to 15 mmol/L, preservation solutions to which sorbitol was added at 10 to 500 mmol/L or sucrose was added at 10 to 250 mmol/L or preservation solutions to which no sugar was added were prepared, and testing was conducted in the same manner as in Example 1. For comparative examples, preservation solutions to which the phenylboronic acid and sugar were not added were prepared, and testing was conducted in the same manner.
# as §1
# [1] = Feces 1, sugar 50 mmol/L + phenylboronic acid 15 mmol/L, 0 days
# [2] = Feces 1, sugar 50 mmol/L + phenylboronic acid 15 mmol/L, 7 days
# [3] = Feces 1, sugar 50 mmol/L + phenylboronic acid 15 mmol/L, 14 days
# [4] = Feces 1, sugar 50 mmol/L + phenylboronic acid 15 mmol/L, 21 days
# [5] = Feces 1, sugar 100 mmol/L + phenylboronic acid 15 mmol/L, 0 days
# [6] = Feces 1, sugar 100 mmol/L + phenylboronic acid 15 mmol/L, 7 days
# [7] = Feces 1, sugar 100 mmol/L + phenylboronic acid 15 mmol/L, 14 days
# [8] = Feces 1, sugar 100 mmol/L + phenylboronic acid 15 mmol/L, 21 days
# [9] = Feces 1, sugar 100 mmol/L, no phenylboronic acid, 0 days
# [10] = Feces 1, sugar 100 mmol/L, no phenylboronic acid, 7 days
# [11] = Feces 1, sugar 100 mmol/L, no phenylboronic acid, 14 days
# [12] = Feces 1, sugar 100 mmol/L, no phenylboronic acid, 21 days
# [13] = Feces 2, sugar 50 mmol/L + phenylboronic acid 15 mmol/L, 0 days
# [14] = Feces 2, sugar 50 mmol/L + phenylboronic acid 15 mmol/L, 7 days
# [15] = Feces 2, sugar 50 mmol/L + phenylboronic acid 15 mmol/L, 14 days
# [16] = Feces 2, sugar 50 mmol/L + phenylboronic acid 15 mmol/L, 21 days
# [17] = Feces 2, sugar 100 mmol/L + phenylboronic acid 15 mmol/L, 0 days
# [18] = Feces 2, sugar 100 mmol/L + phenylboronic acid 15 mmol/L, 7 days
# [19] = Feces 2, sugar 100 mmol/L + phenylboronic acid 15 mmol/L, 14 days
# [20] = Feces 2, sugar 100 mmol/L + phenylboronic acid 15 mmol/L, 21 days
# [21] = Feces 2, sugar 100 mmol/L, no phenylboronic acid, 0 days
# [22] = Feces 2, sugar 100 mmol/L, no phenylboronic acid, 7 days
# [23] = Feces 2, sugar 100 mmol/L, no phenylboronic acid, 14 days
# [24] = Feces 2, sugar 100 mmol/L, no phenylboronic acid, 21 days
# [25] = Feces 3, sugar 50 mmol/L + phenylboronic acid 15 mmol/L, 0 days
# [26] = Feces 3, sugar 50 mmol/L + phenylboronic acid 15 mmol/L, 7 days
# [27] = Feces 3, sugar 50 mmol/L + phenylboronic acid 15 mmol/L, 14 days
# [28] = Feces 3, sugar 50 mmol/L + phenylboronic acid 15 mmol/L, 21 days
# [29] = Feces 3, sugar 100 mmol/L + phenylboronic acid 15 mmol/L, 0 days
# [30] = Feces 3, sugar 100 mmol/L + phenylboronic acid 15 mmol/L, 7 days
# [31] = Feces 3, sugar 100 mmol/L + phenylboronic acid 15 mmol/L, 14 days
# [32] = Feces 3, sugar 100 mmol/L + phenylboronic acid 15 mmol/L, 21 days
# [33] = Feces 3, sugar 100 mmol/L, no phenylboronic acid, 0 days
# [34] = Feces 3, sugar 100 mmol/L, no phenylboronic acid, 7 days
# [35] = Feces 3, sugar 100 mmol/L, no phenylboronic acid, 14 days
# [36] = Feces 3, sugar 100 mmol/L, no phenylboronic acid, 21 days
# [37] = No feces, sugar 50 mmol/L + phenylboronic acid 15 mmol/L, 0 days
# [38] = No feces, sugar 50 mmol/L + phenylboronic acid 15 mmol/L, 7 days
# [39] = No feces, sugar 50 mmol/L + phenylboronic acid 15 mmol/L, 14 days
# [40] = No feces, sugar 50 mmol/L + phenylboronic acid 15 mmol/L, 21 days
# [41] = No feces, sugar 100 mmol/L + phenylboronic acid 15 mmol/L, 7 days
# [42] = No feces, sugar 100 mmol/L + phenylboronic acid 15 mmol/L, 14 days
# [43] = No feces, sugar 100 mmol/L + phenylboronic acid 15 mmol/L, 21 days
# [44] = No feces, sugar 100 mmol/L, no phenylboronic acid, 0 days
# [45] = No feces, sugar 100 mmol/L, no phenylboronic acid, 7 days
# [46] = No feces, sugar 100 mmol/L, no phenylboronic acid, 14 days
# [47] = No feces, sugar 100 mmol/L, no phenylboronic acid, 21 days
smiles,measurement,setting,value
"O=C(CO)[C@@H](O)[C@H](O)[C@H](O)CO [Fructose, fructose]",Hb concentration,[1],297 µg/L
same,Recovery ratio with respect to Hb concentration after 0 days,[1],100%
same,Hb concentration,[2],294 µg/L
same,Recovery ratio with respect to Hb concentration after 0 days,[2],99%
same,Hb concentration,[3],285 µg/L
same,Recovery ratio with respect to Hb concentration after 0 days,[3],96%
same,Hb concentration,[4],280 µg/L
same,Recovery ratio with respect to Hb concentration after 0 days,[4],94%
same,Hb concentration,[5],287 µg/L
same,Recovery ratio with respect to Hb concentration after 0 days,[5],100%
same,Hb concentration,[6],276 µg/L
same,Recovery ratio with respect to Hb concentration after 0 days,[6],96%
same,Hb concentration,[7],247 µg/L
same,Recovery ratio with respect to Hb concentration after 0 days,[7],86%
same,Hb concentration,[8],228 µg/L
same,Recovery ratio with respect to Hb concentration after 0 days,[8],79%
same,Hb concentration,[9],285 µg/L
same,Recovery ratio with respect to Hb concentration after 0 days,[9],100%
same,Hb concentration,[10],127 µg/L
same,Recovery ratio with respect to Hb concentration after 0 days,[10],45%
same,Hb concentration,[11],85 µg/L
same,Recovery ratio with respect to Hb concentration after 0 days,[11],30%
same,Hb concentration,[12],81 µg/L
same,Recovery ratio with respect to Hb concentration after 0 days,[12],28%
same,Hb concentration,[13],270 µg/L
same,Recovery ratio with respect to Hb concentration after 0 days,[13],100%
same,Hb concentration,[14],275 µg/L
same,Recovery ratio with respect to Hb concentration after 0 days,[14],102%
same,Hb concentration,[15],243 µg/L
same,Recovery ratio with respect to Hb concentration after 0 days,[15],90%
same,Hb concentration,[16],222 µg/L
same,Recovery ratio with respect to Hb concentration after 0 days,[16],82%
same,Hb concentration,[17],280 µg/L
same,Recovery ratio with respect to Hb concentration after 0 days,[17],100%
same,Hb concentration,[18],264 µg/L
same,Recovery ratio with respect to Hb concentration after 0 days,[18],94%
same,Hb concentration,[19],235 µg/L
same,Recovery ratio with respect to Hb concentration after 0 days,[19],84%
same,Hb concentration,[20],212 µg/L
same,Recovery ratio with respect to Hb concentration after 0 days,[20],76%
same,Hb concentration,[21],273 µg/L
same,Recovery ratio with respect to Hb concentration after 0 days,[21],100%
same,Hb concentration,[22],100 µg/L
same,Recovery ratio with respect to Hb concentration after 0 days,[22],37%
same,Hb concentration,[23],56 µg/L
same,Recovery ratio with respect to Hb concentration after 0 days,[23],21%
same,Hb concentration,[24],35 µg/L
same,Recovery ratio with respect to Hb concentration after 0 days,[24],13%
same,Hb concentration,[25],272 µg/L
same,Recovery ratio with respect to Hb concentration after 0 days,[25],100%
same,Hb concentration,[26],238 µg/L
same,Recovery ratio with respect to Hb concentration after 0 days,[26],88%
same,Hb concentration,[27],218 µg/L
same,Recovery ratio with respect to Hb concentration after 0 days,[27],80%
same,Hb concentration,[28],203 µg/L
same,Recovery ratio with respect to Hb concentration after 0 days,[28],75%
same,Hb concentration,[29],276 µg/L
same,Recovery ratio with respect to Hb concentration after 0 days,[29],100%
same,Hb concentration,[30],244 µg/L
same,Recovery ratio with respect to Hb concentration after 0 days,[30],88%
same,Hb concentration,[31],222 µg/L
same,Recovery ratio with respect to Hb concentration after 0 days,[31],80%
same,Hb concentration,[32],204 µg/L
same,Recovery ratio with respect to Hb concentration after 0 days,[32],74%
same,Hb concentration,[33],265 µg/L
same,Recovery ratio with respect to Hb concentration after 0 days,[33],100%
same,Hb concentration,[34],83 µg/L
same,Recovery ratio with respect to Hb concentration after 0 days,[34],31%
same,Hb concentration,[35],41 µg/L
same,Recovery ratio with respect to Hb concentration after 0 days,[35],15%
same,Hb concentration,[36],39 µg/L
same,Recovery ratio with respect to Hb concentration after 0 days,[36],15%
same,Hb concentration,[37],286 µg/L
same,Recovery ratio with respect to Hb concentration after 0 days,[37],100%
same,Hb concentration,[38],255 µg/L
same,Recovery ratio with respect to Hb concentration after 0 days,[38],89%
same,Hb concentration,[39],261 µg/L
same,Recovery ratio with respect to Hb concentration after 0 days,[39],91%
same,Hb concentration,[40],275 µg/L
same,Recovery ratio with respect to Hb concentration after 0 days,[40],96%
same,Recovery ratio with respect to Hb concentration after 0 days,"No feces, sugar 100 mmol/L + phenylboronic acid 15 mmol/L, 0 days",100%
same,Hb concentration,[41],245 µg/L
same,Recovery ratio with respect to Hb concentration after 0 days,[41],87%
same,Hb concentration,[42],251 µg/L
same,Recovery ratio with respect to Hb concentration after 0 days,[42],89%
same,Hb concentration,[43],262 µg/L
same,Recovery ratio with respect to Hb concentration after 0 days,[43],93%
same,Hb concentration,[44],250 µg/L
same,Recovery ratio with respect to Hb concentration after 0 days,[44],100%
same,Hb concentration,[45],215 µg/L
same,Recovery ratio with respect to Hb concentration after 0 days,[45],86%
same,Hb concentration,[46],196 µg/L
same,Recovery ratio with respect to Hb concentration after 0 days,[46],78%
same,Hb concentration,[47],177 µg/L
same,Recovery ratio with respect to Hb concentration after 0 days,[47],71%
same,recovery ratio of hemoglobin in the samples containing fecal specimens,"sugar 100 mmol/L, preservation solutions containing no phenylboronic acid",does not improve
same,recovery ratio of hemoglobin in the sample,"sugar 50 or 100 mmol/L further added to phenylboronic acid 15 mmol/L, Feces 1, Feces 2, Feces 3",further improved

# Source: patent US12215140B2, “Method of stabilizing protein contained in specimen and solution for stabilizing protein contained in specimen” (EIKEN KAGAKU KABUSHIKI KAISHA, priority 2018, dated 2025)
